# According to PMC7093416, “Selective USP7 inhibition elicits cancer cell killing through a p53-dependent mechanism” (Scientific Reports, 2020):
# Test system: panel of 484 cancer cell lines
# Experiment: PRISM cancer cell line profiling, 5 days
# Format: cell-based
# Design: AUC: unit not given beside the values
# Protocol: Cancer cell line profiling was performed using the Broad’s PRISM platform. Cell treatment and data analysis were performed as described in Yu et al[42]. Raw Luminex signal was converted to AUC values for each cell line as described. The resulting AUC profile for each compound was modeled against DepMap using the limma package in R[71]. Because hotspot mutation analysis was performed against DepMap, TP53 annotations in Fig. 6c,d are directly from DepMap.
smiles,measurement,setting,value
CN1CCN(CCC(=O)Nc2ccc3c(=O)n(CC4(O)CCN(C(=O)[C@H](CCCNC(=O)c5ccc6c(Cl)c7c(nc6c5)CCCC7)Cc5ccccc5)CC4)cnc3c2)CC1 [XL177B],AUC,RT112_URINARY_TRACT,0.9816
same,AUC,RVH421_SKIN,0.8995
same,AUC,S117_SOFT_TISSUE,0.9955
same,AUC,SBC5_LUNG,1.053
same,AUC,SCABER_URINARY_TRACT,1.101
same,AUC,SCC25_UPPER_AERODIGESTIVE_TRACT,0.9004
same,AUC,SF126_CENTRAL_NERVOUS_SYSTEM,0.9271
same,AUC,SF295_CENTRAL_NERVOUS_SYSTEM,1.235
same,AUC,SF539_CENTRAL_NERVOUS_SYSTEM,0.9498
same,AUC,SH4_SKIN,0.9224
same,AUC,SH10TC_STOMACH,1.086
same,AUC,SIMA_AUTONOMIC_GANGLIA,1.191
same,AUC,SJSA1_BONE,1.13
same,AUC,SKES1_BONE,0.9809
same,AUC,SKHEP1_LIVER,0.9481
same,AUC,SKLU1_LUNG,1.195
same,AUC,SKMEL2_SKIN,0.945
same,AUC,SKMEL3_SKIN,1.224
same,AUC,SKMEL5_SKIN,1.137
same,AUC,SKMEL24_SKIN,1.275
same,AUC,SKMEL30_SKIN,1.1049
same,AUC,SKMES1_LUNG,1.035
same,AUC,SKNAS_AUTONOMIC_GANGLIA,1.162
same,AUC,SKNBE2_AUTONOMIC_GANGLIA,0.9661
same,AUC,SKOV3_OVARY,1.113
same,AUC,SKUT1_SOFT_TISSUE,1.098
same,AUC,SNB75_CENTRAL_NERVOUS_SYSTEM,1.029
same,AUC,SNGM_ENDOMETRIUM,1.214
same,AUC,SNU46_UPPER_AERODIGESTIVE_TRACT,1.023
same,AUC,SNU61_LARGE_INTESTINE,1.357
same,AUC,SNU81_LARGE_INTESTINE,1.469
same,AUC,SNU213_PANCREAS,0.9253
same,AUC,SNU245_BILIARY_TRACT,1.172
same,AUC,SNU308_BILIARY_TRACT,1.2193
same,AUC,SNU398_LIVER,1.038
same,AUC,SNU407_LARGE_INTESTINE,0.8767
same,AUC,SNU410_PANCREAS,1.127
same,AUC,SNU423_LIVER,1.115
same,AUC,SNU449_LIVER,0.9807
same,AUC,SNU466_CENTRAL_NERVOUS_SYSTEM,0.8672
same,AUC,SNU601_STOMACH,1.056
same,AUC,SNU668_STOMACH,0.9502
same,AUC,SNU685_ENDOMETRIUM,0.9823
same,AUC,SNU719_STOMACH,1.037
same,AUC,SNU738_CENTRAL_NERVOUS_SYSTEM,1.115
same,AUC,SNU761_LIVER,1.164
same,AUC,SNU840_OVARY,1.115
same,AUC,SNU869_BILIARY_TRACT,1.118
same,AUC,SNU886_LIVER,1.231
same,AUC,SNU1041_UPPER_AERODIGESTIVE_TRACT,1.134
same,AUC,SNU1066_UPPER_AERODIGESTIVE_TRACT,1.18
same,AUC,SNU1076_UPPER_AERODIGESTIVE_TRACT,0.9825
same,AUC,SNU1077_ENDOMETRIUM,1.083
same,AUC,SNU1079_BILIARY_TRACT,1.166
same,AUC,SNU1105_CENTRAL_NERVOUS_SYSTEM,1.105
same,AUC,SNU1196_BILIARY_TRACT,1.09
same,AUC,SNU1214_UPPER_AERODIGESTIVE_TRACT,0.9564
same,AUC,SNUC2A_LARGE_INTESTINE,1.042
same,AUC,SNUC4_LARGE_INTESTINE,1.117
same,AUC,SNUC5_LARGE_INTESTINE,1.097
same,AUC,SQ1_LUNG,1.099
same,AUC,SUIT2_PANCREAS,1.021
same,AUC,SW480_LARGE_INTESTINE,1.084
same,AUC,SW579_THYROID,1.209
same,AUC,SW620_LARGE_INTESTINE,1.165
same,AUC,SW780_URINARY_TRACT,1.236
same,AUC,SW837_LARGE_INTESTINE,1.0717
same,AUC,SW900_LUNG,1.235
same,AUC,SW948_LARGE_INTESTINE,1.132
same,AUC,SW1088_CENTRAL_NERVOUS_SYSTEM,1.121
same,AUC,SW1271_LUNG,1.015
same,AUC,SW1353_BONE,0.6793
same,AUC,SW1573_LUNG,1.097
same,AUC,SW1710_URINARY_TRACT,1.102
same,AUC,SW1990_PANCREAS,1.083
same,AUC,T3M10_LUNG,1.12
same,AUC,T24_URINARY_TRACT,1.071
same,AUC,T47D_BREAST,1.066
same,AUC,T98G_CENTRAL_NERVOUS_SYSTEM,0.9969
same,AUC,TCCPAN2_PANCREAS,1.118
same,AUC,TCCSUP_URINARY_TRACT,1.104
same,AUC,TE1_OESOPHAGUS,1.328
same,AUC,TE4_OESOPHAGUS,1.033
same,AUC,TE5_OESOPHAGUS,0.9565
same,AUC,TE6_OESOPHAGUS,1.06
same,AUC,TE8_OESOPHAGUS,0.9218
same,AUC,TE9_OESOPHAGUS,1.298
same,AUC,TE10_OESOPHAGUS,0.9856
same,AUC,TE11_OESOPHAGUS,1.076
same,AUC,TEN_ENDOMETRIUM,0.9874
same,AUC,TM31_CENTRAL_NERVOUS_SYSTEM,1.105
same,AUC,TM87_SOFT_TISSUE,1.039
same,AUC,TOV21G_OVARY,0.7718
same,AUC,TOV112D_OVARY,0.9778
same,AUC,TT2609C02_THYROID,1.023
same,AUC,TT_OESOPHAGUS,1.189
same,AUC,TT_THYROID,0.9532
same,AUC,TUHR4TKB_KIDNEY,1.093
same,AUC,U2OS_BONE,1.264
same,AUC,U118MG_CENTRAL_NERVOUS_SYSTEM,1.3332
same,AUC,U251MG_CENTRAL_NERVOUS_SYSTEM,1.04
same,AUC,UACC62_SKIN,0.9925
same,AUC,UACC257_SKIN,0.9688
same,AUC,UBLC1_URINARY_TRACT,1.0896
same,AUC,UMUC1_URINARY_TRACT,1.045
same,AUC,UO31_KIDNEY,1.143
same,AUC,VMCUB1_URINARY_TRACT,0.9508
same,AUC,VMRCRCW_KIDNEY,1.069
same,AUC,VMRCRCZ_KIDNEY,1.083
same,AUC,WM88_SKIN,1.093
same,AUC,WM793_SKIN,1.133
same,AUC,WM983B_SKIN,1.143
same,AUC,WM1799_SKIN,0.7611
same,AUC,WM2664_SKIN,1.168
same,AUC,YAPC_PANCREAS,1.439
same,AUC,YD8_UPPER_AERODIGESTIVE_TRACT,1.127
same,AUC,YD10B_UPPER_AERODIGESTIVE_TRACT,0.9769
same,AUC,YD15_SALIVARY_GLAND,0.9723
same,AUC,YD38_UPPER_AERODIGESTIVE_TRACT,1.117
same,AUC,YH13_CENTRAL_NERVOUS_SYSTEM,1.068
same,AUC,YKG1_CENTRAL_NERVOUS_SYSTEM,1.107
same,AUC,ZR751_BREAST,0.9538
